Our source for the IC50 values is US5919769A, “Fucose derivatives, drugs containing the same as active ingredient, and intermediates for producing the same” (Kanebo, Ltd, priority 1995, dated 1999).

In one test the target is L-selectin. As to the kind of experiment: Inhibitory test on the binding of L-selectin to sialyl Le^X (selectin-IgG chimera). To be noted: inhibition of L-selectin IgG chimera binding to sialyl Le^X-pentaceramide. As to the method:
(§1) The experiment was carried out according to the method using selectin-IgG chimera, which was reported by Foxall, C. et al. (J. Cell Biol., 117, 895-902 (1992)).
(§2) Sialyl Le^X -pentaceramide was dissolved in 50% methanol in distilled water, and the solution was put into a 96-well plate in an amount of 100 pmol/well. The plate was allowed to stand at room temperature overnight, and the solvent therein was evaporated. The plate was washed with distilled water, and subjected to blocking with 50 mM imidazole buffer (pH 7.2) containing 5% BSA (bovine serum albumin) and 1 mM calcium chloride at room temperature for one hour.
(§3) Separately, to 500-fold diluted solution of each biotinylated anti-human IgG Fc and streptavidin-alkaline phosphatase conjugate with a 50 mM imidazole buffer (pH 7.2) containing 1% BSA and 1 mM calcium chloride, P-selectin IgG chimera was added to give a final concentration of 40 μg/ml, and the mixture was incubated at room temperature for 30 minutes to give the complex solution.
(§4) A test compound was dissolved in DMSO (except that the test compound h was dissolved in distilled water) to give 10 mM aqueous solution thereof, which was serially diluted with 50 mM imidazole buffer (pH 7.2) containing 1% BSA and 1 mM calcium chloride to give the solutions in 8 various concentrations (two-fold serial dilution from 20 μM). The test compound solution in each concentration and the above complex solution were mixed in equal volume, and the mixture was incubated at room temperature for 30 minutes to give the reaction solution.
(§5) After the blocking was completed, the blocking solution in the above plate was discarded, and the plate was washed with 50 mM imidazole buffer (pH 7.2), and thereto was added the above reaction solution in an amount of 50 μl/well. The plate was incubated at 37° C. for 45 minutes, and then washed three times with 50 mM imidazole buffer (pH 7.2) and washed three times with distilled water. 1M diethanolamine (pH 9.8) containing 0.01% magnesium chloride and 1 mg/ml p-nitrophenyl phosphate was put into each well in an amount of 50 μl/well, and the plate was allowed to stand for 1 to 2 hours for color development. The absorbance at 405 nm was measured, and the binding rate (%) was calculated by the following equation, based on the absorbance (X) of the wells containing a test compound at various concentrations and the absorbance (A) of the wells containing no test compound.
(§6) IC50 was evaluated by probit method from the binding rate.
Inhibitory test on the binding of L-selectin to sialyl Le^X :
The same procedures of Experiment 1 were repeated except that L-selectin IgG chimera (40 μg/ml) was used instead of P-selectin IgG chimera (40 μg/ml).

The next test addresses P-selectin. As to the kind of experiment: Inhibitory test on the binding of P-selectin to sialyl Le^X (selectin-IgG chimera). To be noted: inhibition of P-selectin IgG chimera binding to sialyl Le^X-pentaceramide. As for the experimental part:
Inhibitory test on the binding of P-selectin to sialyl Le^X :
as §1, §2, §3, §4, §5, §6

Structures can show the parent of a compound that is named as a salt. Where only a bound is given, the exact number is not on record here.

For `CCCCCCCCCCCCCCC(CCCCCCCCCCCCCC)C(=O)N[C@@H](CO[C@@H]1O[C@H]([C@H](C)O)[C@@H](O)[C@@H]1O)C(=O)N[C@H](CCC(=O)O)C(=O)NC` [compound b, [N-(2-tetradecylhexadecanoyl)-O-(α-L-fucofuranosyl)-L-seryl]-D-glutamic acid 1-methylamide], the results for the IC50 at L-selectin and at P-selectin were 1500 nM and 1000 nM, respectively.

Turning to `CCCCCCCCCCCCCCC(CCCCCCCCCCCCCC)C(=O)N[C@@H](CS[C@@H]1O[C@@H](C)[C@@H](O)[C@@H](O)[C@@H]1O)C(=O)N[C@H](CCC(=O)O)C(=O)NC` [compound r, [N-(2-tetradecylhexadecanoyl)-S-(α-L-fucopyranosyl)-L-cysteinyl]-D-glutamic acid 1-methylamide], the figures for the IC50 at L-selectin and on P-selectin were 700 nM and 200 nM, respectively.

As for `CCCCCCCCCCCCCCC(CCCCCCCCCCCCCC)C(=O)N[C@H](CO[C@H]1O[C@@H](C)[C@@H](O)[C@@H](O)[C@@H]1O)C(=O)N[C@H](CCC(=O)O)C(=O)NC` [compound p, [N-(2-tetradecylhexadecanoyl)-O-(β-L-fucopyranosyl)-D-seryl]-D-glutamic acid 1-methylamide], the IC50 on L-selectin was determined as 700 nM; at P-selectin it was 300 nM.

As for `CCCCCCCCCCCCCCC(CCCCCCCCCCCCCC)C(=O)N[C@H](CO[C@H]1O[C@@H](C)[C@@H](O)[C@@H](O)[C@@H]1O)C(=O)N[C@@H](CCC(=O)O)C(=O)NC` [compound o, [N-(2-tetradecylhexadecanoyl)-O-(β-L-fucopyranosyl)-D-seryl]-L-glutamic acid 1-methylamide], the results for the IC50 on L-selectin and on P-selectin were 1600 nM and 300 nM, respectively.

For the compound `CCCCCCCCCCCCCCC(CCCCCCCCCCCCCC)C(=O)N[C@@H](CO[C@@H]1O[C@H]([C@H](C)O)[C@@H](O)[C@@H]1O)C(=O)N[C@H](CCC(=O)O)C(=O)Nc1ccccc1` [compound g, [N-(2-tetradecylhexadecanoyl)-O-(α-L-fucofuranosyl)-L-seryl]-D-glutamic acid 1-anilide], the values for the IC50 on L-selectin and on P-selectin were 1700 nM and 100 nM, respectively.

As to `CCCCCCCCCCCCCCC(CCCCCCCCCCCCCC)C(=O)N[C@@H](CS[C@@H]1O[C@@H](C)[C@@H](O)[C@@H](O)[C@@H]1O)C(=O)N[C@@H](CCC(=O)O)C(=O)NC` [compound q, [N-(2-tetradecylhexadecanoyl)-S-(α-L-fucopyranosyl)-L-cysteinyl]-L-glutamic acid 1-methylamide], the IC50 on L-selectin turned out to be 200 nM; on P-selectin, 100 nM.

On to `CC(=O)N[C@H]1[C@H]([C@H](O)[C@H](O)CO)O[C@@](O[C@H]2[C@@H](O)[C@@H](CO)O[C@@H](O[C@@H]([C@H](O[C@@H]3O[C@@H](C)[C@@H](O)[C@@H](O)[C@@H]3O)[C@H](C=O)NC(C)=O)[C@H](O)CO)[C@@H]2O)(C(=O)O)C[C@@H]1O` [compound X, Sialyl Le^X, reference compound], for which the IC50 on L-selectin and on P-selectin was > 500000 nM each time.

Regarding `CCCCCCCCCCCCCCC(CCCCCCCCCCCCCC)C(=O)N[C@@H](CS[C@H]1O[C@@H](C)[C@@H](O)[C@@H](O)[C@@H]1O)C(=O)N[C@H](CCC(=O)O)C(=O)NC` [compound u, [N-(2-tetradecylhexadecanoyl)-S-(β-L-fucopyranosyl)-L-cysteinyl]-D-glutamic acid 1-methylamide], the IC50 on L-selectin and at P-selectin was 1000 nM each time.

As to `CCCCCCCCCCCCCCC(CCCCCCCCCCCCCC)C(=O)N[C@H](CS[C@@H]1O[C@@H](C)[C@@H](O)[C@@H](O)[C@@H]1O)C(=O)N[C@@H](CCC(=O)O)C(=O)NC` [compound s, [N-(2-tetradecylhexadecanoyl)-S-(α-L-fucopyranosyl)-D-cysteinyl]-L-glutamic acid 1-methylamide], the IC50 on L-selectin and on P-selectin was 100 nM each time.

`CCCCCCCCCCCCCCC(CCCCCCCCCCCCCC)C(=O)N[C@H](CO[C@@H]1O[C@@H](C)[C@@H](O)[C@@H](O)[C@@H]1O)C(=O)N[C@H](CCC(=O)O)C(=O)NC` [compound l, [N-(2-tetradecylhexadecanoyl)-O-(α-L-fucopyranosyl)-D-seryl]-D-glutamic acid 1-methylamide]: the IC50 was determined as 18000 nM at L-selectin and 2100 nM on P-selectin.

Take `CCCCCCCCCCCCCCC(CCCCCCCCCCCCCC)C(=O)N[C@H](CO[C@@H]1O[C@H]([C@H](C)O)[C@@H](O)[C@@H]1O)C(=O)N[C@H](CCC(=O)O)C(=O)NC` [compound d, [N-(2-tetradecylhexadecanoyl)-O-(α-L-fucofuranosyl)-D-seryl]-D-glutamic acid 1-methylamide]: the IC50 turned out to be 500 nM on L-selectin and 200 nM at P-selectin.

Take `CCCCCCCCCCCCCCC(CCCCCCCCCCCCCC)C(=O)N[C@@H](CO[C@H]1O[C@@H](C)[C@@H](O)[C@@H](O)[C@@H]1O)C(=O)N[C@@H](CCC(=O)O)C(=O)NC` [compound m, [N-(2-tetradecylhexadecanoyl)-O-(β-L-fucopyranosyl)-L-seryl]-L-glutamic acid 1-methylamide]: the IC50 at L-selectin was found to be 800 nM; on P-selectin it was 600 nM.

Consider `CCCCCCCCCCCCCCC(CCCCCCCCCCCCCC)C(=O)N[C@@H](CO[C@@H]1O[C@H]([C@H](C)O)[C@@H](O)[C@@H]1O)C(=O)NCCCCC(=O)O` [compound f, 5-N-[N-(2-tetradecylhexadecanoyl)-O-(α-L-fucofuranosyl)-L-seryl]aminovaleric acid], for which the IC50 at L-selectin was determined as 2500 nM; on P-selectin, 1200 nM.

For `CCCCCCCCCCCCCCC(CCCCCCCCCCCCCC)C(=O)N[C@@H](CO[C@@H]1O[C@H]([C@H](C)O)[C@@H](O)[C@@H]1O)C(=O)N[C@H](CCC(=O)O)C(=O)NC` [compound h, [N-(2-tetradecylhexadecanoyl)-O-(α-L-fucofuranosyl)-L-seryl]-D-glutamic acid 1-methylamide sodium salt], the IC50 on L-selectin (sodium salt) is 300 nM; at P-selectin (sodium salt), 1200 nM.

With `CCCCCCCCCCCCCCC(CCCCCCCCCCCCCC)C(=O)N[C@@H](CO[C@@H]1O[C@@H](C)[C@@H](O)[C@@H](O)[C@@H]1O)C(=O)N[C@@H](CCC(=O)O)C(=O)NC` [compound i, [N-(2-tetradecylhexadecanoyl)-O-(α-L-fucopyranosyl)-L-seryl]-L-glutamic acid 1-methylamide], the IC50 was found to be 39000 nM at L-selectin and 1900 nM on P-selectin.

On to `CCCCCCCCCCCCCCC(CCCCCCCCCCCCCC)C(=O)N[C@@H](CO[C@@H]1O[C@H]([C@H](C)O)[C@@H](O)[C@@H]1O)C(=O)N[C@@H](CCC(=O)O)C(=O)NC` [compound a, [N-(2-tetradecylhexadecanoyl)-O-(α-L-fucofuranosyl)-L-seryl]-L-glutamic acid 1-methylamide], for which the IC50 at L-selectin was determined as 2200 nM; on P-selectin, 1300 nM.

For the compound `CCCCCCCCCCCCCCC(CCCCCCCCCCCCCC)C(=O)N[C@@H](CO[C@@H]1O[C@@H](C)[C@@H](O)[C@@H](O)[C@@H]1O)C(=O)N[C@H](CCC(=O)O)C(=O)NC` [compound j, [N-(2-tetradecylhexadecanoyl)-O-(α-L-fucopyranosyl)-L-seryl]-D-glutamic acid 1-methylamide], the IC50 was found to be 6000 nM on L-selectin and 500 nM on P-selectin.

With `CCCCCCCCCCCCCCC(CCCCCCCCCCCCCC)C(=O)N[C@@H](CO[C@H]1O[C@@H](C)[C@@H](O)[C@@H](O)[C@@H]1O)C(=O)N[C@H](CCC(=O)O)C(=O)NC` [compound n, [N-(2-tetradecylhexadecanoyl)-O-(β-L-fucopyranosyl)-L-seryl]-D-glutamic acid 1-methylamide], the IC50 at L-selectin was found to be 800 nM; at P-selectin, 300 nM.

Regarding `CCCCCCCCCCCCCCC(CCCCCCCCCCCCCC)C(=O)N[C@@H](CO[C@@H]1O[C@H]([C@H](C)O)[C@@H](O)[C@@H]1O)C(=O)NCCCC(=O)O` [compound e, 4-N-[N-(2-tetradecylhexadecanoyl)-O-(α-L-fucofuranosyl)-L-seryl]aminobutyric acid], the IC50 at L-selectin was found to be 1800 nM; at P-selectin, 500 nM.

Turning to `CCCCCCCCCCCCCCC(CCCCCCCCCCCCCC)C(=O)N[C@H](CS[C@@H]1O[C@@H](C)[C@@H](O)[C@@H](O)[C@@H]1O)C(=O)N[C@H](CCC(=O)O)C(=O)NC` [compound t, [N-(2-tetradecylhexadecanoyl)-S-(α-L-fucopyranosyl)-D-cysteinyl]-D-glutamic acid 1-methylamide], the IC50 stood at 600 nM on L-selectin and 300 nM at P-selectin.
